How the values were obtained:
Isl1 mRNA = Isl1 mRNA in P19 cells, RT-PCR; assay type: cell-based, mouse; conditions: 5 nM for 12 hours, 1 nM Shh-N for 24 hours
Procedure: Methods described in Example 6 were used in addition to the following protocols. P19 cells were treated with (FIG. 8A, lanes 2 and 4) or without (FIG. 8A, lanes 1 and 3) 1 nM Shh-N for 24 hours and 5 nM OA (FIG. 8A, lanes 3 and 4) for 12 hours and total RNA was obtained. An internal control containing a 763 bp insert into the SphI site of the Islet-1 cDNA was transcribed in vitro to prepare sense-oriented RNA. 1 ng of this RNA along with 100 ng of total RNA from appropriately treated P19 cells was reverse transcribed using Superscript II™ and one-tenth of each reaction was PCR amplified. Specific primers for Islet-1; Forward primer: 5′TCAAAC CTA CTT TGG GGT CTT A 3′SEQ ID NO:5. Reverse primer: 5′ATCGCCGGGGATGAGCTGGCGGCT 3′SEQ ID NO:6, and for COUP-TFII; Forward primer: 5′GATATGGCAATGGTAGTCAGCACGTGG 3′. SEQ ID NO:7, Reverse primer: 5′AGCTTCTCCACTTGCTCTTGG 3′SEQ ID NO:8, were used to PCR amplify (94° C. for 1 minute, 54° C. for 1 minute, and 72° C. for 1 minute. Twenty-two cycles were used for amplifying Islet-1 and the resulting products were separated on a 1% agarose gel in TAE buffer and visualized by ethidium bromide staining. A 1 kb DNA ladder (Stratagene) was used to estimate the size of the products. A 427 bp Isl1 fragment and a 838 bp COUP-TFII fragment was used to estimate changes in mRNA levels.

ShhRE reporter gene = assay: Shh-N mediated induction of ShhRE reporter gene activity; assay type: cell-based, mouse; conditions: 5 nM (data not shown)
Procedure: Methods described above in Example 6 were used in addition to the following protocols. P19 cells were transfected with a ShhRE-tkLUC reporter plasmid and three copies of a mutant element called mShhRE-tkLUC and treated with or without 1 nM Shh. Cell lysates were obtained after 30 hours and were later assayed for luciferase reporter activity. A graph (FIG. 5B) representing relative luciferase units per twenty μg (RLU/20 μg) was plotted using results obtained from three separate experiments (mean ±sd).

PP2B = conditions: cited from earlier work
ShhRE = assay: EMSA of Shh-induced protein binding to radiolabeled ShhRE, P19 nuclear extracts; assay type: cell-based, mouse; conditions: 5 nM, 1.0 nM Shh-N, 24 hours
Procedure: Methods described in Example 6 were used in addition to the following protocols. P19 cells were treated with or without Shh-N for 24 hours and nuclear extracts were obtained and used in an electrophoretic mobility shift assay (EMSA) with radiolabeled ShhRE. The following oligos were used as competitors or probes in these assays; WT ShhRE—GTTCTACATAATGCGCCG—SEQ ID NO:1; mShhRE—GTTCTACgTgATGCGCCG—SEQ ID NO:3; GliRE—[…]—. SEQ ID NO:4, Different amounts of unlabeled Gli response element (GliRE) (FIG. 5C, lane 3, 100X; lane 4, 50X; lane 5, 25X; and lane 6, 10X) or ShhRE (lane 7; 100X, lane 8; 50X and lane 9; 10X) was used as a competitor at the indicated molar excess.
In EMSA, radiolabeled probe was incubated with the nuclear extracts (10 μg) along with 4 μg poly dG-dC in a binding reaction containing 10 mM Tris pH 7.5, 50 mM NaCl, 1 mM EDTA, 1 mM DTT, 0.1 mg/ml BSA, and 5% glycerol. Later the mixture was loaded onto a 5% polyacrylamide gel and the retarded complexes were separated-in 1× TBE buffer and analyzed using autoradiography.
P-19 cells were treated with phosphatase inhibitors to study the endogenous levels of COUP-TFII mRNA. […] Total RVA was isolated from these cells and 20 μg of RNA was used in a RNase protection assay as described above in Example 6. A region of the murine Cyclophilin A cDNA was used to generate riboprobe and was used as an internal control. P19 cells were co-treated with (FIG. 7C, lane 2, 4, 6, and 7) or without (FIG. 7C, lane 1, 3, and 5) 1.0 nM Shh-N and 5 nM OA (lane 3 and 4), 0.5 nM CyA (FIG. 7C, lane 5 & 6) or 5 nm NoA (FIG. 7C, lane 9). Cells were harvested after 24 hours of treatment and the nuclear extract was obtained for the binding reactions. Extracts were subjected to an EMSA as described earlier.

HNF3β and Isl-1 = assay: SHH induction of HNF3β and Isl-1 in chick embryo neurotube explant; assay type: cell-based
From the text: Most of the components identified so far in the HH signaling pathway are conserved from Drosophila to vertebrates. The phosphatase activity found in cl-8 cells may also be conserved in vertebrates. Sonic HH (SHH), the vertebrate homolog of HH, induced the floor plate marker hepatocyte nuclear factor 3β (HNF3) and motor neuron marker islet-1 (Is1-1) in the developing neurotube. In chick embryo neurotube explant, exogenously provided SHH induced the expression of HNF3β and Isl-1.

C=C1[C@@H](O)[C@@H]2O[C@]3(CC[C@H](/C=C/[C@@H](C)[C@@H]4CC(C)=C[C@@]5(O[C@H](C[C@@](C)(O)C(=O)O)CC[C@H]5O)O4)O3)CC[C@H]2O[C@@H]1[C@@H](O)C[C@H](C)[C@H]1O[C@@]2(CCCCO2)CC[C@H]1C [OA, okadaic acid]
Shh-N induction of Is11 mRNA (Isl1 mRNA): completely blocked
Shh-N mediated induction of ShhRE reporter gene activity (ShhRE reporter gene): completely blocked
effect on PP2B (PP2B): no effect
Shh-induced binding to radiolabeled ShhRE (ShhRE): abolished
induction of HNF3β and Isl-1 (HNF3β and Isl-1; 1 nM, 2.5 mg/ml of SHH): reduced the induction
effect on induction of HNF3β and Isl-1 at higher SHH (HNF3β and Isl-1; 1 nM, 10 mg/ml of SHH): reversed
induction of HNF3β and Isl-1 (HNF3β and Isl-1; 10 nM, 10 mg/ml of SHH): completely blocked the induction

From patent US6733971B2, “Method for identifying an agent that affects a hedgehog signaling pathway” (priority 1998, dated 2004)
